According to patent US20250346597A1, “CONDENSED HETEROCYCLIC COMPOUNDS AS INHIBITOR OF DIACYLGLYCEROL KINASES” (BEONE MEDICINES I GMBH, priority 2023, published 2025):

What was measured:
[1] = target: DGKα (Homo sapiens (Human), UniProt P23743); assay: Biochemical DGK IC50 assay (ADP-Glo, lipid micelle substrate), DGKα; details: full length DGKα […], ATP 140 μM, DAG 80 μM; also: full length DGKα 7.5 nM
Description: (§1) Enzymatic reactions of DGKζ, DGKα and DGKδ were performed using ADP-Glo assay with lipid micelle substrate. […] Full length DGKα (D21-10BG, SignalChem) and full length DGKδ (D23-10G, SignalChem) were purchased. Lipid micelle was prepared by dissolving DAG (Sigma, 317505-10MG) and PS (Sigma, P7769-100MG) with chloroform which was furtherly removed by rotary evaporation. The resulted product was resuspended in buffer containing 25 mM HEPES pH 7.0, 0.5 mM EDTA and 160 mM Octyl P-D glucopyranoside by vigorous mixing and ultrasonic (IID, Scientz).
(§2) The inhibition activities testing for the compound disclosed herein were carried out at room temperature in assay buffer containing 50 mM HEPES, 10 mM MgCl2, 0.01% BSA, 0.1 mM Na3VO4, 0.005% Tween-20 and 0.01 mM CaCl2. Compounds in DMSO were dispensed into wells of a black 384 well plate (Corning 4514) using D300e digital dispenser (Tecan). […] 3 μL 2× enzyme solution was added to wells. […] After 1 hour reaction, 5 μL ADP-Glo reagent (Promga V9101) was added and incubated for 40 minutes. 10 μL Kinase Detection reagent was added and incubated for 30 minutes. Luminescence was measured on a microplate reader (PHERAstar FSX, BMG labtech). The IC50s are calculated based on inhibition of enzyme activity in the presence of increasing concentrations of compounds.

[2] = target: DGKζ (Homo sapiens (Human), UniProt Q13574); assay: Biochemical DGK IC50 assay (ADP-Glo, lipid micelle substrate), DGKζ; details: full length DGKζ 0.5 nM, ATP 140 μM, DAG 80 μM
Description: as §1, §2
Human His-TEV-DGK-zeta-pFastBac1 and human baculovirus samples was generated using the Bac-to-Bac baculovirus expression system (Invitrogen) according to the manufacturer's protocol. The DNA used for expression of DGK-zeta, have SEQ ID Nos: 1. Baculovirus amplification was achieved using infected SF9 cells at 1:2000 virus/cells ratios, and grown for 96 hours at 27° C. post-transfected.
The expression scaled up for each protein was carried out in the […] from CORNING. 4 L of 3×10^6 cells/mL Sf9 cells (Expression System, Invitrogen) grown in SF900™ II SFM insect medium (Expression System) was infected with virus stock at 1:200 virus/cells ratio, and grown for 48 hours at 27° C. post-transfection. The infected cell culture was harvested by centrifugation at 6000 rpm for 15 min 4° C. in a SORVALL LYNX6000 centrifuge. The cell pellets were stored at −80° C.
Full length human DGKζ produced as described above, was purified from Sf9 baculovirus-infected insect cell paste. The cells were lysed using sonication method, and the lysates were clarified by centrifugation.

Chain of DGKα (P23743 whole entry): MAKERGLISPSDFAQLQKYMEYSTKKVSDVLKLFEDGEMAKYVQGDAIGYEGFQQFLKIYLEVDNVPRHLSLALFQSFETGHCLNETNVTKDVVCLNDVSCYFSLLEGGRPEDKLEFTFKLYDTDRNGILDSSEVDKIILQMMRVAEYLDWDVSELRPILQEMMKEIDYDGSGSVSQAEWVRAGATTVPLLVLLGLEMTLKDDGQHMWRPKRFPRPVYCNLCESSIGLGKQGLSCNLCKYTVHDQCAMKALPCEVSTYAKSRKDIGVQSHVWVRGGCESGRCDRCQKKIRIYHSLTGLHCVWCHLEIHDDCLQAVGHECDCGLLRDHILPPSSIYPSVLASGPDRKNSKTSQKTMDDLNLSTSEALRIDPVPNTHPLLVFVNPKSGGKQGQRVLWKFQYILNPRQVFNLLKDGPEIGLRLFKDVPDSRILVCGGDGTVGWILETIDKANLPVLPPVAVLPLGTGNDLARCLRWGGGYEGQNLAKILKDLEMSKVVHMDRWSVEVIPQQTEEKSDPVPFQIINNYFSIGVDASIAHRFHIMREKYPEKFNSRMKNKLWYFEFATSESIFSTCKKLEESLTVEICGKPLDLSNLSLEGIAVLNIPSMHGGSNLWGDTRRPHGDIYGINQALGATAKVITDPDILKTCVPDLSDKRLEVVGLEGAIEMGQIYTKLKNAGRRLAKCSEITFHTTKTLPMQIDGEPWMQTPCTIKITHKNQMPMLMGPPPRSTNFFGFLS
Chain of DGKζ (Q13574 other isoform, or with tags, fused parts or gaps): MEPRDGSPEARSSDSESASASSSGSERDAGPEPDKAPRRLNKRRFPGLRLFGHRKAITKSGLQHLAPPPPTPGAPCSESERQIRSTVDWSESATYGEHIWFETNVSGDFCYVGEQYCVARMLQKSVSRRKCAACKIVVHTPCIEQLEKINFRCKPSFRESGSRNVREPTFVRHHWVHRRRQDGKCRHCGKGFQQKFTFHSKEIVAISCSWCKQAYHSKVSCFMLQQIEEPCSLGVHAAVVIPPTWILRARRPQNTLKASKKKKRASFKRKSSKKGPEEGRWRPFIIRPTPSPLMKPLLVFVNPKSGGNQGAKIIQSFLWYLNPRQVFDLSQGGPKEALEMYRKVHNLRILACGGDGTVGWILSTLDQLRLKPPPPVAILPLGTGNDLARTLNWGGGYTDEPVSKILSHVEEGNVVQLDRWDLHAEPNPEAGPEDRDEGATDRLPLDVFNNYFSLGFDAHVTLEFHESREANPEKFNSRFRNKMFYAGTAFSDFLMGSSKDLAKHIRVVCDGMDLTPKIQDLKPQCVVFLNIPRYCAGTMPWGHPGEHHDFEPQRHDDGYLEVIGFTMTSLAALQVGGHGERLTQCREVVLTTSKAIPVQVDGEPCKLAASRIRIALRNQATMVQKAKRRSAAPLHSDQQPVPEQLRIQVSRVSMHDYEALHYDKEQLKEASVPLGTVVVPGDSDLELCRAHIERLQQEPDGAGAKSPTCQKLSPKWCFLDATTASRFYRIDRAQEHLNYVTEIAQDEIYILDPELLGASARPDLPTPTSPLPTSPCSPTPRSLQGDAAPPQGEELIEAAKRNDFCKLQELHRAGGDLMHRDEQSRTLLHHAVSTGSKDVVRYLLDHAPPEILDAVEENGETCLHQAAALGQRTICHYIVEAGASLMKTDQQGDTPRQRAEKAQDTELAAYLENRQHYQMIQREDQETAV

| IC50 [1] [nM] | IC50 [2] [nM] | SMILES |
| --- | --- | --- |
| 469 | 31 | CC[C@H]1CN(C(C)c2ccc3scnc3c2F)[C@H](CC)CN1c1cc(=O)n(C)c2cn(CC#N)nc12 (single isomer, unassigned) [Compound A110a] |
| 237 | 2360 | CC#CCn1cc2c(n1)c(N1C[C@@H](CC)N(C(C)c3ccc(C4CC4)nc3)C[C@@H]1CC)cc(=O)n2C (single isomer, unassigned) [Compound A39b] |
| 164 | 57 | CC[C@H]1CN(C(C)c2nc3c(s2)CCCC3)[C@H](CC)CN1c1cc(=O)n(C)c2cn(CC#N)nc12 (single isomer, unassigned) [Compound A36a] |
| 6190 | 641 | CC#CCn1cc2c(n1)c(N1C[C@@H](CC)N(C(C)c3ccc4sc(C)nc4c3F)C[C@@H]1CC)cc(=O)n2C (single isomer, unassigned) [Compound A141b] |
| 164 | 66.4 | CC[C@H]1CN(C(C)c2ccc3c(c2)OCO3)[C@H](CC)CN1c1cc(=O)n(C)c2cn(CC#N)nc12 (stereo partly drawn) [Compound A185, 2-(7-((2S,5R)4-(1-(benzo[d][1,3]dioxol-5-yl)ethyl)-2,5-diethylpiperazin-1-yl)-4-methyl-5-oxo-4,5-dihydro-2H-pyrazolo[4,3-b]pyridin-2-yl)acetonitrile] |
| 134 | 88 | CC[C@H]1CN(C(C)c2ccn3ncc(F)c3n2)[C@H](CC)CN1c1nc(=O)n(C)c2cn(CC#N)nc12 (single isomer, unassigned) [Compound A164b] |
| 666 | 3690 | CC[C@H]1CN(C(C)c2ccc(-c3cn(C)nn3)cc2)[C@H](CC)CN1c1cc(=O)n(C)c2cn(CC#N)nc12 (stereo partly drawn) [Compound A30, 2-(7-((2S,5R)-2,5-diethyl-4-(1-(4-(1-methyl-1H-1,2,3-triazol-4-yl)phenyl)ethyl)piperazin-1-yl)-4-methyl-5-oxo-4,5-dihydro-2H-pyrazolo[4,3-b]pyridin-2-yl)acetonitrile] |
| > 10000 | > 10000 | CC[C@H]1CN(C(C)c2ccc3ncc(Cl)n3n2)[C@H](CC)CN1c1cc(=O)n(C)c2cn(CC#N)nc12 (single isomer, unassigned) [Compound A167a] |
| 28 | 34 | CC[C@H]1CN(C(C)c2ccc3ccsc3c2)[C@H](CC)CN1c1cc(=O)n(C)c2cn(CC#N)nc12 (stereo partly drawn) [Compound A89, 2-(7-((2S,5R)-4-(1-(benzo[b]thiophen-6-yl)ethyl)-2,5-diethylpiperazin-1-yl)-4-methyl-5-oxo-4,5-dihydro-2H-pyrazolo[4,3-b]pyridin-2-yl)acetonitrile] |
| 838 | 323 | CC[C@H]1CN(C(C)c2ccc(OC3CCOC3)cc2F)[C@H](CC)CN1c1cc(=O)n(C)c2cn(CC#N)nc12 (stereo partly drawn) [Compound A13, 2-(7-((2S,5R)-2,5-diethyl-4-(1-(2-fluoro-4-((tetrahydrofuran-3-yl)oxy)phenyl)ethyl)piperazin-1-yl)-4-methyl-5-oxo-4,5-dihydro-2H-pyrazolo[4,3-b]pyridin-2-yl)acetonitrile] |
| 100 | 427 | CC[C@H]1CN(C(C)c2ccc(OC3(C)COC3)cc2)[C@H](CC)CN1c1cc(=O)n(C)c2cn(CC#N)nc12 (stereo partly drawn) [Compound A24, 2-(7-((2S,5R)-2,5-diethyl-4-(1-(4-((3-methyloxetan-3-yl)oxy)phenyl)ethyl)piperazin-1-yl)-4-methyl-5-oxo-4,5-dihydro-2H-pyrazolo[4,3-b]pyridin-2-yl)acetonitrile] |
| 295 | 66 | CC[C@H]1CN(C(C)c2ccc3c(c2)CCC3)[C@H](CC)CN1c1cc(=O)n(C)c2cn(CC#N)nc12 (stereo partly drawn) [Compound A65, 2-(7-((2S,5R)-4-(1-(2,3-dihydro-1H-inden-5-yl)ethyl)-2,5-diethylpiperazin-1-yl)-4-methyl-5-oxo-4,5-dihydro-2H-pyrazolo[4,3-b]pyridin-2-yl)acetonitrile] |
| 68 | 43 | CC[C@H]1CN(C(C)c2ccc3ncoc3c2)[C@H](CC)CN1c1cc(=O)n(C)c2cn(CC#N)nc12 (single isomer, unassigned) [Compound A84a] |
| 202 | 30 | CC[C@H]1CN(C(C)c2ccc(C3CC3)nc2F)[C@H](CC)CN1c1cc(=O)n(C)c2cn(CC#N)nc12 (single isomer, unassigned) [Compound A45a] |
| 1110 | 2720 | CC[C@H]1CN(C(C)c2ccc3nc(C)cn3n2)[C@H](CC)CN1c1cc(=O)n(C)c2cn(CC#N)nc12 (single isomer, unassigned) [Compound A149a] |
| 18400 | 220 | CC[C@@H]1CN(c2cc(=O)n(C)c3cn(CC#N)nc23)[C@@H](C)CN1C(C)c1ccc2nc(C)sc2c1F (single isomer, unassigned) [Compound A104b] |
| 178 | 54 | CC[C@H]1CN(C(C)c2ccc3ccnn3c2)[C@H](CC)CN1c1cc(=O)n(C)c2cn(CC#N)nc12 (single isomer, unassigned) [Compound A77a] |
| 1390 | 2550 | CC[C@H]1CN(C(C)c2ccc3c(c2)OCO3)[C@H](CC)CN1c1cc(=O)n(C)c2cn(CC#N)nc12 (single isomer, unassigned) [Compound A68b] |
| > 10000 | > 10000 | CC[C@H]1CN(C(C)c2ccn3nc(C)c(F)c3n2)[C@H](CC)CN1c1nc(=O)n(C)c2cn(CC#N)nc12 (single isomer, unassigned) [Compound A170a] |
| 744 | 859 | CC[C@H]1CN(C(C)c2ccc3ccnn3c2)[C@H](CC)CN1c1cc(=O)n(C)c2cn(CC#N)nc12 (single isomer, unassigned) [Compound A77b] |
| 11800 | 8540 | CC[C@H]1CN(C(C)c2ccc(CN3CCC(OC)CC3)cc2)[C@H](CC)CN1c1cc(=O)n(C)c2cn(CC#N)nc12 (single isomer, unassigned) [Compound A189b] |
| 1630 | > 10000 | CC[C@@H]1CN(c2cc(=O)n(C)c3cn(CC#N)nc23)[C@@H](C)CN1C(C)c1ccn2nccc2n1 (single isomer, unassigned) [Compound A166b] |
| 124 | 267 | CC[C@H]1CN(C(C)c2ccc3nc(C)cn3n2)[C@H](CC)CN1c1nc(=O)n(C)c2cn(CC#N)nc12 (single isomer, unassigned) [Compound A150b] |
| 6510 | > 10000 | CC[C@H]1CN(C(C)c2ccc(C(=O)NC)cc2)[C@H](CC)CN1c1cc(=O)n(C)c2cn(CC#N)nc12 (single isomer, unassigned) [Compound A193b] |
| 541 | 202 | CC[C@H]1CN(C(C)c2ccc(OC3CC3)nc2)[C@H](CC)CN1c1cc(=O)n(C)c2cn(CC#N)nc12 (stereo partly drawn) [Compound A37, 2-(7-((2S,5R)-4-(1-(6-cyclopropoxypyridin-3-yl)ethyl)-2,5-diethylpiperazin-1-yl)-4-methyl-5-oxo-4,5-dihydro-2H-pyrazolo[4,3-b]pyridin-2-yl)acetonitrile] |
| 12400 | 31 | CC(c1ccc2c(c1)OC(C)(C)O2)N1C[C@H](C)N(c2cc(=O)n(C)c3cn(CC#N)nc23)C[C@H]1C (stereo partly drawn) [Compound A70, 2-(7-((2S,5R)-4-(1-(2,2-dimethylbenzo[d][1,3]dioxol-5-yl)ethyl)-2,5-dimethylpiperazin-1-yl)-4-methyl-5-oxo-4,5-dihydro-2H-pyrazolo[4,3-b]pyridin-2-yl)acetonitrile] |
| 2170 | 112 | CC[C@H]1CN(C(C)c2ccc(C(C)(F)F)nc2)[C@H](CC)CN1c1cc(=O)n(C)c2cn(CC#N)nc12 (stereo partly drawn) [Compound A199, 2-(7-((2S,5R)-4-(1-(6-(1,1-difluoroethyl)pyridin-3-yl)ethyl)-2,5-diethylpiperazin-1-yl)-4-methyl-5-oxo-4,5-dihydro-2H-pyrazolo[4,3-b]pyridin-2-yl)acetonitrile] |
| 65 | 78 | CC#CCn1cc2c(n1)c(N1C[C@@H](CC)N(C(C)c3ccc4ncsc4c3)C[C@@H]1C)cc(=O)n2C (single isomer, unassigned) [Compound A112a] |
| 2650 | 11 | CC[C@H]1CN(C(C)c2ccc3sc(C)nc3c2)[C@H](CC)CN1c1cc(=O)n(C)c2cn(CC#N)nc12 (stereo partly drawn) [Compound A108, 2-(7-((2S,5R)-2,5-diethyl-4-(1-(2-methylbenzo[d]thiazol-5-yl)ethyl)piperazin-1-yl)-4-methyl-5-oxo-4,5-dihydro-2H-pyrazolo[4,3-b]pyridin-2-yl)acetonitrile] |
